Measured values taken from patent US20230263822A1, “MODULATION OF FACTOR 11 EXPRESSION” (Ionis Pharmaceuticals, Inc., priority 2008, published 2023).

Tests used:
[1] = system: human Factor 11 mRNA; assay: Dose-dependent inhibition of human Factor 11 in HepG2 cells, lipofectin 2.34-75 nM (Example 5); format: cell-based; conditions: for percent inhibition of human Factor 11 mRNA relative to untreated control cells: ~16 hours
Experimental: (§1) Cells were plated at a density of 10,000 cells per well and transfected using lipofectin reagent with 2.34 nM, 4.69 nM, 9.375 nM, 18.75 nM, 37.5 nM, and 75 nM concentrations of antisense oligonucleotide, as specified in Table 11. After a treatment period of approximately 16 hours, RNA was isolated from the cells and human Factor 11 mRNA levels were measured by quantitative real-time PCR. Human Factor 11 primer probe set RTS 2966 was used to measure mRNA levels. Factor 11 mRNA levels were adjusted according to total RNA content, as measured by RIBOGREEN. Results are presented as percent inhibition of human Factor 11, relative to untreated control cells.

[2] = system: human Factor 11 mRNA; assay: Dose-dependent inhibition of human Factor 11 in cyano primary hepatocytes, electroporation (Example 6); format: cell-based; conditions: ~16 hours
Experimental: Cells were plated at a density of 35,000 cells per well and transfected via electroporation with 0.74 nM, 2.2 nM, 6.7 nM, 20 nM, 60 nM, and 180 nM concentrations of antisense oligonucleotide, as specified in Table 13. After a treatment period of approximately 16 hours, RNA was isolated from the cells and human Factor 11 mRNA levels were measured by quantitative real-time PCR. Human Factor 11 primer probe set RTS 2966 was used to measure mRNA levels. Factor 11 mRNA levels were adjusted according to total RNA content, as measured by RIBOGREEN. Results are presented as percent inhibition of human Factor 11, relative to untreated control cells.

[3] = system: human Factor 11 mRNA; assay: Dose-dependent inhibition of human Factor 11 in HepB3 cells, lipofectin (Example 7); format: cell-based; conditions: for percent inhibition of Factor 11 mRNA relative to untreated control cells: ~16 hours
Experimental: as §1, with “4,000” for “10,000”, “2.3” for “2.34”, “4.7” for “4.69”, “9.4” for “9.375”, “14.” for “11.”, “of” for “of human”

[4] = Tolerability in CD1 mice: organ weight (Example 33); format: in vivo; conditions: 50 mg/kg s.c. twice a week, vs PBS control, normalized to body weight
Experimental: Three days after the last dose was administered to all groups, the mice were sacrificed.

[5] = Tolerability in Sprague-Dawley rats: body weight and organ weight (Example 35); format: in vivo; conditions: 50 mg/kg s.c. twice per week for 6 weeks; for Percent change: Body weight: percent change over the weights at the start of the study; for Percent change in organ weight: Kidney / Percent change in organ weight: Liver / Percent change in organ weight: Spleen: vs saline control, normalized to body weight
Source text: Urine samples were taken before the start of treatment.
The body weights are presented in Table 71 and are expressed as a percent change over the weights taken at the start of the study.

| Substance | IC50 [1] [nM] | percent inhibition of human Factor 11 mRNA relative to untreated control cells ([1]; 2.34 nM) [%] | percent inhibition of human Factor 11 mRNA relative to untreated control cells ([1]; 4.69 nM) [%] | percent inhibition of human Factor 11 mRNA relative to untreated control cells ([1]; 9.375 nM) [%] | percent inhibition of human Factor 11 mRNA relative to untreated control cells ([1]; 18.75 nM) [%] | percent inhibition of human Factor 11 mRNA relative to untreated control cells ([1]; 37.5 nM) [%] | percent inhibition of human Factor 11 mRNA relative to untreated control cells ([1]; 75 nM) [%] | percent inhibition of human Factor 11 mRNA relative to untreated control cells ([2]; 0.74 nM) [%] | percent inhibition of human Factor 11 mRNA relative to untreated control cells ([2]; 2.2 nM) [%] | percent inhibition of human Factor 11 mRNA relative to untreated control cells ([2]; 6.7 nM) [%] | percent inhibition of human Factor 11 mRNA relative to untreated control cells ([2]; 20 nM) [%] | percent inhibition of human Factor 11 mRNA relative to untreated control cells ([2]; 60 nM) [%] | percent inhibition of human Factor 11 mRNA relative to untreated control cells ([2]; 180 nM) [%] | IC50 [3] [nM] | percent inhibition of Factor 11 mRNA relative to untreated control cells ([3]; 2.3 nM) [%] | percent inhibition of Factor 11 mRNA relative to untreated control cells ([3]; 4.7 nM) [%] | percent inhibition of Factor 11 mRNA relative to untreated control cells ([3]; 9.4 nM) [%] | percent inhibition of Factor 11 mRNA relative to untreated control cells ([3]; 18.75 nM) [%] | percent inhibition of Factor 11 mRNA relative to untreated control cells ([3]; 37.5 nM) [%] | percent inhibition of Factor 11 mRNA relative to untreated control cells ([3]; 75 nM) [%] | other results |
| --- | --- | --- | --- | --- | --- | --- | --- | --- | --- | --- | --- | --- | --- | --- | --- | --- | --- | --- | --- | --- | --- |
| 416838 (antisense GCAACCGGGATGATGAGTGC; 5-10-5 gapmer, further chemistry not given here) [compound 416838] | 10 | 21 | 37 | 50 | 63 | 74 | 83 | 0 | 0 | 21 | 34 | 48 | 62 | 11 | 23 | 34 | 43 | 59 | 71 | 56 | Percent change in kidney weight ([4]; 2 weeks): −2%; Percent change in liver weight ([4]; 2 weeks): +8%; Percent change in spleen weight ([4]; 2 weeks): +21%; Percent change in kidney weight ([4]; 4 weeks): −12%; Percent change in liver weight ([4]; 4 weeks): −6%; Percent change in spleen weight ([4]; 4 weeks): −8%; Percent change in kidney weight ([4]; 6 weeks): −8%; Percent change in liver weight ([4]; 6 weeks): 0%; Percent change in spleen weight ([4]; 6 weeks): +9%; Percent change: Body weight [5]: −23%; Percent change in organ weight: Kidney [5]: −0.5%; Percent change in organ weight: Liver [5]: +8%; Percent change in organ weight: Spleen [5]: +212% |
| 416864 (antisense GGCAGCGGACGGCATTGGTG; 5-10-5 gapmer, further chemistry not given here) [compound 416864] | 15 | 13 | 34 | 42 | 65 | 68 | 80 | 0 | 1 | 15 | 23 | 47 | 64 | 9 | 24 | 37 | 42 | 66 | 76 | 63 | Percent change in kidney weight ([4]; 2 weeks): −4%; Percent change in liver weight ([4]; 2 weeks): −2%; Percent change in spleen weight ([4]; 2 weeks): −10%; Percent change in kidney weight ([4]; 4 weeks): −9%; Percent change in liver weight ([4]; 4 weeks): +2%; Percent change in spleen weight ([4]; 4 weeks): −2%; Percent change in kidney weight ([4]; 6 weeks): −15%; Percent change in liver weight ([4]; 6 weeks): −5%; Percent change in spleen weight ([4]; 6 weeks): −6%; Percent change: Body weight [5]: −24%; Percent change in organ weight: Kidney [5]: +16%; Percent change in organ weight: Liver [5]: +16%; Percent change in organ weight: Spleen [5]: +204% |
| 416892 (antisense GCCCTTCATGTCTAGGTCCA; 3-14-3 chimeric gapmer, further chemistry not given here) [compound 416892] | 9 | 14 | 34 | 49 | 70 | 84 | 93 | 20 | 20 | 43 | 62 | 88 | 92 | 9 | 28 | 34 | 50 | 68 | 82 | 72 | Percent change in kidney weight ([4]; 2 weeks): +2%; Percent change in liver weight ([4]; 2 weeks): +35%; Percent change in spleen weight ([4]; 2 weeks): +24%; Percent change in kidney weight ([4]; 4 weeks): −3%; Percent change in liver weight ([4]; 4 weeks): +88%; Percent change in spleen weight ([4]; 4 weeks): +30%; Percent change in kidney weight ([4]; 6 weeks): +19%; Percent change in liver weight ([4]; 6 weeks): +95%; Percent change in spleen weight ([4]; 6 weeks): +65%; Percent change: Body weight [5]: −39%; Percent change in organ weight: Kidney [5]: +32%; Percent change in organ weight: Liver [5]: +38%; Percent change in organ weight: Spleen [5]: +151% |
| 416925 (antisense GGTGCACAGTTTCTGGCAGG; 3-14-3 gapmer chemistry, further chemistry not given here) [compound 416925] | 13 | 24 | 34 | 45 | 56 | 67 | 72 | 0 | 9 | 1 | 48 | 55 | 76 | 12 | 26 | 33 | 45 | 59 | 72 | 60 | Percent change in kidney weight ([4]; 2 weeks): −4%; Percent change in liver weight ([4]; 2 weeks): +14%; Percent change in spleen weight ([4]; 2 weeks): −7%; Percent change in kidney weight ([4]; 4 weeks): −14%; Percent change in liver weight ([4]; 4 weeks): +14%; Percent change in spleen weight ([4]; 4 weeks): +33%; Percent change in kidney weight ([4]; 6 weeks): −2%; Percent change in liver weight ([4]; 6 weeks): +33%; Percent change in spleen weight ([4]; 6 weeks): +78%; Percent change: Body weight [5]: −32%; Percent change in organ weight: Kidney [5]: +48%; Percent change in organ weight: Liver [5]: +44%; Percent change in organ weight: Spleen [5]: +371% |
